Test results as given in patent US9492428B2, “Compounds, compositions, pharmaceutical compositions, and methods of use” (University of Louisville Research Foundation, Inc., priority 2011, dated 2016).
≈ marks a conversion by molar mass, not a printed value.

Tests used:
DU145 cells = test: MTT assay (cytotoxicity / cell proliferation) in DU145; assay type: cell-based, human
Experimental: (§1) FIG. 4. Bioassay of compound I-1, compound I-2, and compound I-3. SPA14-3-2 is pure compound I-2. SPA14-3-3 is pure compound I-3. SPA14-3-4 is pure compound I-1. MTT assays using compound I-1, compound I-2, and compound I-3 against DU145 and RWPE-1 cells lines.
(§2) FIG. 8. Cell proliferation assay. (A) DU145 or PC3 prostate cancer were plated at a density of 1,500 cells per well in 96-well plates and incubated 18 hours at 37° C. to allow adherence. They were untreated or treated by addition of different concentrations of compound I-1 (which were added directly to the medium) or vehicle (DMSO), and proliferation was measured using a 3-(4,5-dimethylthiazol-2-yl)-2,5-diphenyltetrazolium bromide MTT assay after 3 days of treatment. Points, mean of triplicate normalized samples to vehicle sample; bars, SE. (B) GI50 after 3 days of treatment. (C) Prostate cancer cells (DU145 or PC3) or a non-malignant epithelial cells (RWPE-1) were plated at a density of 1,000 cells per well in 96-well plates and incubated 18 hours at 37° C. to allow adherence. They were untreated or treated by addition of different concentrations of compound I-1 (added directly to the medium) or vehicle (DMSO), and proliferation was by MTT assay after 5 days of treatment. Points, mean of triplicate normalized samples to vehicle sample; bars, SE.
(§3) Isolation, NMR, and X-ray crystallographic analyses. Leaves, stems, and few fruits of Physalis angulate L (Solanaceae) were collected in Rio Domingusa. Kuith/Barranquita, Amazonas Department, Northeastern Peru, and identified by the team led by Walter Lewis (collection voucher 18597, Ext. 1159). Dried and grounded material (46 g) was extracted with ethanol (1 L, 95%) for 7 days. The evaporated crude extract (6.26 g) was denoted SPA. An aliquot (1.5 g) of SPA was partitioned between dichloromethane (40 mL) and water (40 mL), affording two fractions: organic (SPA1, 500 mg) and aqueous (SPA2, 600 mg). All MTT assays were performed as described in Bates et al. “G-Rich Oligonucleotides for Cancer Treatment” Chapter 21 of Methods in Molecular Biology, Gene Therapy of Cancer, Wolfgang Walther and Ulrike S. Stein (eds.), Vol. 542, 2009, Humana Press. […] SPA14-3 (30 mg) was treated on an HPLC using a reverse phase C18 column eluted in gradient mode of methanol and water (from 80% methanol to 100% methanol) and detected at 254 nm, yielding SPA14-3-1 (0 mg), SPA14-3-2 (1.2 mg of pure compound I-2), SPA14-3-3 (4.1 mg of pure compound I-3), and SPA14-3-4 (18 mg of pure compound I-1).
(§4) General Experimental Procedure. Compound I-1 was isolated as described in Example Set 1, above. For samples of compound I-1 used in Example Set 2, HPLC and NMR indicated a purity of at least 95%. All experiments described in Example Set 2 were repeated at least two or three times. […]

[1] = tested on: Prostate cancer cells (DU145 or PC3) or a non-malignant epithelial cells (RWPE-1); test: MTT cell proliferation assay, 5 days, cancer versus non-malignant cells; assay type: cell-based, human; conditions: after five days of treatment, FIG. 8C
Experimental: as §2, §4

RWPE-1 cells = test: MTT assay (cytotoxicity) in RWPE-1; assay type: cell-based; conditions: Homo sapiens, FIG. 4, read-out: GI50 against RWPE-1
Description: as §1, §3
General Experimental Procedure. Compound I-1 was isolated as described in Example Set 1, above. For samples of compound I-1 used in Example Set 2, HPLC and NMR indicated a purity of at least 95%. All experiments described in Example Set 2 were repeated at least two or three times. All MTT assays were performed according to Bates et al. “G-Rich Oligonucleotides for Cancer Treatment” Chapter 21 of Methods in Molecular Biology, Gene Therapy of Cancer, Wolfgang Walther and Ulrike S. Stein (eds.), Vol. 542, 2009, Humana Press.

PC3 cells = test: Immunoblotting of apoptotic markers (cleaved caspase-3, PARP-1) in PC3; assay type: cell-based, human; conditions: 10 μM, FIG. 11B
Experimental: FIG. 11. Compound I-1 induces cell cycle arrest and apoptosis in PC3 cells. Prostate cancer cells were left untreated (−) or treated with compound I-1 (10 μM) or with vehicle (DMSO) for the time indicated in the figure. (A) For flow cytometric analysis of cell cycle parameters, cells were fixed, and stained with propidium iodide. Each histogram indicates the percent of cells in G1, S, and G2/M phases of the cell cycle. Data were gated to exclude apoptotic cells for these calculations. (B) After treatment, cells were lysed and total lysates were analyzed for cellular apoptotic markers by immunoblotting using anti-PARP-1 or anti-cleaved Caspase-3 antibodies. Anti-GAPDH-1 antibody was used as loading control. (C) Some 48 h-treated PC3 cells were harvest by trypsinization, washed with PBS, and total DNA was extracted then analyzed on a 1.8% agarose gel. M indicates DNA size marker (base pairs).
Cell Culture and Treatment. All cells were obtained from ATCC and were grown in a humidified incubator at 37° C. with 5% CO2. […] All protein concentrations were determined using the bicinchoninic acid (BCA) protein assay (Pierce, Rockford, Ill.).
Immunoblotting. […] Antibody-reactive proteins were detected using a chemiluminescence substrate (SuperSignal; Pierce, Rockford, Ill.) according to the manufacturer's instructions. […]

SMILES: C[C@@H]1CC[C@H]2C3C(O[C@]4([C@]5(O)CC6(C)C(=O)OC5C[C@@]6(C)O)CC[C@@]31O4)[C@H]1O[C@]13CC=CC(=O)[C@]23C (stereo partly drawn) [I-1]
- GI50 (DU145 cells; Homo sapiens, DU-145, MTT assay, FIG. 4, read-out: GI50 against DU145): ~1.5 µg/mL (≈ 3 µM)
- concentration of maximum antiproliferative activity (DU145 cells; after three days of treatment): 10 µM
- inhibition of cancer cell growth as compared to non-malignant cell growth [1]: selectivity inhibit cancer cell growth
- GI50 (RWPE-1 cells): ~1.2 µg/mL (≈ 2.4 µM)
- activation of caspase-3 (PC3 cells): able to induce
- cleavage of PARP-1 (PC3 cells): able to induce
